Assay results reported in PubChem BioAssay (NCI).
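48-hour exposure; five concentrations; linearly interpolated endpoints. At the GI50, growth is halved. TGI: concentration producing complete growth inhibition.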

Key:
Experiment in all cases: inhibition of tumour cell growth, NCI panel, 48 h
CCRF-CEM leukemia = test system: CCRF-CEM leukemia
EKVX NSCLC = test system: EKVX NSCLC
HCC-2998 colon = test system: HCC-2998 colon
HL-60(TB) leukemia = test system: HL-60(TB) leukemia
MDA-MB-435 = test system: MDA-MB-435
NCI-H23 lung = test system: NCI-H23 lung
OVCAR-4 ovarian = test system: OVCAR-4 ovarian
RPMI-8226 leukemia = test system: RPMI-8226 leukemia
SF-268 CNS = test system: SF-268 CNS
SR leukemia = test system: SR leukemia

Structure (SMILES)	GI50 (CCRF-CEM leukemia)	TGI (CCRF-CEM leukemia)	GI50 (EKVX NSCLC)	TGI (EKVX NSCLC)	GI50 (HCC-2998 colon)	TGI (HCC-2998 colon)	GI50 (HL-60(TB) leukemia)	TGI (HL-60(TB) leukemia)	GI50 (MDA-MB-435)	TGI (MDA-MB-435)	GI50 (NCI-H23 lung)	TGI (NCI-H23 lung)	GI50 (OVCAR-4 ovarian)	TGI (OVCAR-4 ovarian)	GI50 (RPMI-8226 leukemia)	TGI (RPMI-8226 leukemia)	GI50 (SF-268 CNS)	TGI (SF-268 CNS)	GI50 (SR leukemia)	TGI (SR leukemia)
O=C(OCc1ccc2c(Br)cc(Br)c(O)c2n1)c1cc2ccccc2[nH]1	0.293 µM	2.03 µM	1.46 µM	3 µM	1.57 µM	3.1 µM	0.615 µM	2.94 µM	0.709 µM	2.08 µM	1.44 µM	3.14 µM	0.959 µM	2.31 µM	0.357 µM	1.94 µM	1.44 µM	2.91 µM	0.43 µM	4.22 µM
CCN=c1sc2c(n1NC(=O)c1cc3ccc1CCc1ccc(cc1)CC3)C(=O)c1ccccc1C2=O	1.01 µM	33.3 µM	0.632 µM	1.66 µM	0.824 µM	2.1 µM	0.815 µM	2.3 µM	0.601 µM	1.09 µM	0.589 µM	1.64 µM	0.469 µM	0.906 µM	0.769 µM	2.2 µM	0.604 µM	1.62 µM	0.815 µM	9.91 µM
O=C1C=C[C@H](O)[C@@]2(CO)O[C@@H]12	2.7 µM	12.3 µM	9.69 µM	49.9 µM	17.2 µM	31 µM	2.65 µM	8.3 µM	9.92 µM	> 51.5 µM	15.8 µM	31.3 µM	13 µM	29.4 µM	3.38 µM	12 µM	15.3 µM	29 µM	4.64 µM	> 100 µM
Cn1nccc1Nc1nccc(-c2ccn([C@H](CO)c3ccc(Cl)c(F)c3)c(=O)c2)n1	15.7 µM	> 85.1 µM	22.8 µM	> 100 µM	0.588 µM	23.7 µM	1.89 µM	30.4 µM	3.16 µM	> 100 µM	4.47 µM	> 100 µM	33.5 µM	> 100 µM	21.6 µM	59.3 µM	38.1 µM	> 100 µM	25.1 µM	> 100 µM
CN(C)CCCC1(c2ccc(F)cc2)OCc2cc(-c3cccc4[nH]ccc34)ccc21 (configuration not stated)	1.65 µM	3.95 µM	1.78 µM	3.3 µM	1.54 µM	2.94 µM	1.81 µM	3.59 µM	1.76 µM	3.31 µM	1.83 µM	3.62 µM	1.97 µM	4.51 µM	1.77 µM	4.12 µM	1.58 µM	3.03 µM	0.973 µM	2.97 µM
CCN1C(=S)N(CC)C2C1NC(=S)N2/N=C/C=C/c1ccccc1OC (configuration not stated)	0.346 µM	> 100 µM	0.4 µM	> 100 µM	0.392 µM	25.3 µM	0.229 µM	0.597 µM	0.0368 µM	0.177 µM	0.466 µM	> 100 µM	1.1 µM	> 100 µM	0.377 µM	7.08 µM	0.913 µM	44.8 µM	0.0833 µM	–
CCN(CC)CCCNc1ccc(C)c2sc3ccccc3c(=O)c12	0.96 µM	2.82 µM	2.16 µM	7.65 µM	0.488 µM	1.77 µM	1.71 µM	3.63 µM	0.21 µM	0.451 µM	1.75 µM	5.04 µM	2.12 µM	33 µM	0.33 µM	1.34 µM	1.31 µM	3.74 µM	0.268 µM	0.988 µM
COc1cc2c(N3CCN(C(=O)Nc4ccc(OC(C)C)cc4)CC3)ncnc2cc1OCCCN1CCCCC1	18.3 µM	> 79.3 µM	28.9 µM	> 100 µM	19.6 µM	44.3 µM	15.1 µM	36.1 µM	13.8 µM	29.9 µM	14.6 µM	39.1 µM	14.4 µM	53.9 µM	11.7 µM	> 54.1 µM	16.2 µM	38.6 µM	9.55 µM	46.2 µM
c1ccc(-c2[nH]ncc2-c2ccnc(-c3ccc(OCCn4ccnc4)cc3)c2)nc1	17.3 µM	> 25 µM	> 25 µM	> 25 µM	> 25 µM	> 25 µM	> 25 µM	> 25 µM	24.5 µM	> 25 µM	> 25 µM	> 25 µM	16.1 µM	> 25 µM	> 20.6 µM	> 25 µM	> 25 µM	> 25 µM	> 25 µM	> 25 µM
Cc1ccc(O)cc1Nc1ccnc2ccc(S(C)(=O)=O)cc12	> 25 µM	> 25 µM	11.9 µM	> 25 µM	10 µM	> 25 µM	10.2 µM	> 25 µM	4.92 µM	> 25 µM	5.97 µM	> 25 µM	> 25 µM	> 25 µM	> 25 µM	> 25 µM	2.67 µM	> 25 µM	> 25 µM	> 25 µM
CNCc1cccc2c1OCCOCCOCCN(C)S(=O)(=O)c1ccc(cc1)-c1cnc(N)c(n1)C(=O)N2	0.549 µM	3.95 µM	2.83 µM	12.7 µM	15.5 µM	30.3 µM	0.578 µM	3.14 µM	1.28 µM	2.69 µM	2.47 µM	27.9 µM	–	–	4.39 µM	31 µM	1.75 µM	5.81 µM	0.248 µM	2.97 µM
COc1ccc2c(c1)C(=O)c1c-2c(Nc2ccccc2OC)nc2ccccc12	> 100 µM	> 100 µM	> 100 µM	> 100 µM	> 100 µM	> 100 µM	> 100 µM	> 100 µM	> 100 µM	> 100 µM	> 100 µM	> 100 µM	50.5 µM	> 100 µM	> 100 µM	> 100 µM	> 100 µM	> 100 µM	> 100 µM	> 100 µM
